The values that follow come from PubChem BioAssay AID330 (DTP/NCI, 2004).

The subject of the assay is P388 leukemia ip, CD2F1 mice, survival T/C. Kind of assay: NCI In Vivo Anticancer Drug Screen. Data for tumor model P388 Leukemia (intraperitoneal) in CD2F1 (CDF1) mice. The conditions noted are these: endpoint: median survival time, higher = longer survival. The procedure, abridged: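 Mice carrying the transplanted tumor received test compound or vehicle. Survival was recorded in each group, and the value is the treated-group measurement divided by that of the vehicle-treated control group.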

[1] abbreviates: dose: 60.0 mg/kg/injection, schedule: Q01DX005 (ip), vehicle: Klucel (hydroxypropylcellulose) (HPC).
Where [2] appears, read: dose: 120.0 mg/kg/injection, schedule: Q01DX005 (ip), vehicle: Klucel (hydroxypropylcellulose) (HPC).
Setting [3] is: dose: 240.0 mg/kg/injection, schedule: Q01DX005 (ip), vehicle: Klucel (hydroxypropylcellulose) (HPC).
Where [4] appears, read: dose: 50.0 mg/kg/injection, schedule: Q01DX005 (ip), vehicle: saline with Tween-80.
[5] abbreviates: dose: 100.0 mg/kg/injection, schedule: Q01DX005 (ip), vehicle: saline with Tween-80.
Setting [6] is: dose: 200.0 mg/kg/injection, schedule: Q01DX005 (ip), vehicle: saline with Tween-80.
[7] abbreviates: dose: 50.0 mg/kg/injection, schedule: Q01DX005 (ip), vehicle: Klucel (hydroxypropylcellulose) (HPC).
[8] abbreviates: dose: 100.0 mg/kg/injection, schedule: Q01DX005 (ip), vehicle: Klucel (hydroxypropylcellulose) (HPC).
Setting [9] is: dose: 200.0 mg/kg/injection, schedule: Q01DX005 (ip), vehicle: Klucel (hydroxypropylcellulose) (HPC).
Setting [10] is: dose: 100.0 mg/kg/injection, schedule: Q04DX002 (ip), vehicle: saline with Tween-80.
[11] abbreviates: dose: 200.0 mg/kg/injection, schedule: Q04DX002 (ip), vehicle: saline with Tween-80.
[12] abbreviates: dose: 400.0 mg/kg/injection, schedule: Q04DX002 (ip), vehicle: saline with Tween-80.
Setting [13] is: dose: 20.0 mg/kg/injection, schedule: Q01DX009 (ip), vehicle: saline with Tween-80.
Where [14] appears, read: dose: 60.0 mg/kg/injection, schedule: Q01DX005 (ip), vehicle: saline with Tween-80.
Setting [15] is: dose: 120.0 mg/kg/injection, schedule: Q01DX005 (ip), vehicle: saline with Tween-80.
Setting [16] is: dose: 240.0 mg/kg/injection, schedule: Q01DX005 (ip), vehicle: saline with Tween-80.

Values joined by “and” are separate entries in the source; they are usually repeats but may differ in a detail not shown here. Equal values may be shown once. Toxic doses and inconclusive results are not listed.

As for `COC1CC(C)C(OC)c2cc(O)cc(c2O)NC(=O)/C(C)=C/C=C\C(C)C(OC(N)=O)/C(C)=C\C(C)C1OC` (stereo not given), the T/C reads like this: (dose: 0.63 mg/kg/injection, schedule: Q01DX009 (ip), vehicle: saline + alcohol) 116 % of control; (dose: 1.25 mg/kg/injection, schedule: Q01DX009 (sc), vehicle: saline + alcohol) 99 % of control; (dose: 2.5 mg/kg/injection, schedule: Q01DX009 (sc), vehicle: saline + alcohol) 93 % of control; (dose: 5.0 mg/kg/injection, schedule: Q01DX009 (sc), vehicle: saline + Tween-80 + alcohol) 94 % of control; (dose: 5.0 mg/kg/injection, schedule: Q01DX009 (sc), vehicle: saline + alcohol) 98 % of control; (dose: 10.0 mg/kg/injection, schedule: Q01DX009 (sc), vehicle: saline + alcohol) 90 % of control. Also, the T/C by setting is: (dose: 20.0 mg/kg/injection, schedule: Q01DX009 (ip), vehicle: saline + alcohol) 160 % of control; (dose: 20.0 mg/kg/injection, schedule: Q01DX009 (oral), vehicle: saline + Tween-80 + alcohol) 92 % of control; (dose: 40.0 mg/kg/injection, schedule: Q01DX009 (oral), vehicle: saline + Tween-80 + alcohol) 93 % of control; (dose: 80.0 mg/kg/injection, schedule: Q01DX009 (oral), vehicle: saline + Tween-80 + alcohol) 92 % of control; (dose: 160.0 mg/kg/injection, schedule: Q01DX009 (oral), vehicle: saline + Tween-80 + alcohol) 94 % of control; (dose: 240.0 mg/kg/injection, schedule: Q01DX009 (oral), vehicle: saline + Tween-80 + alcohol) 103 % of control.

Consider `CSC(=S)N/N=C/c1ccc[nH]1`, for which the T/C by setting is: (dose: 50.0 mg/kg/injection, schedule: Q01DX009 (ip), vehicle: saline) 100 % of control; (dose: 100.0 mg/kg/injection, schedule: Q01DX009 (ip), vehicle: saline) 94 % of control.

Turning to `O=C(O)CCC(=O)NNc1nc2ccccc2s1`, the T/C by setting is: under setting [1], 102 % of control; under setting [2], 104 % of control; under setting [3], 97 % of control.

Regarding `CCn1c(=O)c(C(C)=O)cc2c(=O)c3c(ccc4ccccc43)oc21`, the T/C under setting [4] is 104 % of control, the T/C under setting [5] is 93 % of control and the T/C under setting [6] is 91 % of control.

As to `O=C1OC2C(I)C3CC1C2C3` (stereo not given), the T/C is, setting by setting: (dose: 25.0 mg/kg/injection, schedule: Q01DX009 (ip), vehicle: saline with Tween-80) 100 % of control; (dose: 25.0 mg/kg/injection, schedule: Q04DX003 (ip), vehicle: saline with Tween-80) 104 % of control; (dose: 50.0 mg/kg/injection, schedule: Q01DX009 (ip), vehicle: saline with Tween-80) 110 % of control; (dose: 50.0 mg/kg/injection, schedule: Q04DX003 (ip), vehicle: saline with Tween-80) 104 % of control.

For the molecule `COc1ccc(NC(=O)Oc2ccc(C#N)cc2)cc1`, the T/C was 108 % of control and 98 % of control (dose: 7.5 mg/kg/injection, schedule: Q01DX005 (ip), vehicle: Klucel (hydroxypropylcellulose) (HPC)); 112 % of control and 98 % of control (dose: 15.0 mg/kg/injection, schedule: Q01DX005 (ip), vehicle: Klucel (hydroxypropylcellulose) (HPC)); 105 % of control and 108 % of control (dose: 30.0 mg/kg/injection, schedule: Q01DX005 (ip), vehicle: Klucel (hydroxypropylcellulose) (HPC)); 116 % of control and 123 % of control under setting [1]; 117 % of control under setting [2].

As to `CCOC(=O)CC(=O)Cc1oc2c(C(C)=O)c(O)c(C)c(O)c2c1C`, the T/C is 86 % of control under setting [7], 87 % of control under setting [8] and 90 % of control under setting [9].

For `CC(=O)Oc1cc2c3c(c1)-c1c(ccc(OC(C)=O)c1OC(C)=O)CC3NCC2` (stereo not given), the T/C by setting is: (dose: 3.13 mg/kg/injection, schedule: Q04DX003 (ip), vehicle: DMSO) 101 % of control; (dose: 6.25 mg/kg/injection, schedule: Q04DX003 (ip), vehicle: DMSO) 101 % of control; (dose: 12.5 mg/kg/injection, schedule: Q04DX003 (ip), vehicle: DMSO) 103 % of control; (dose: 25.0 mg/kg/injection, schedule: Q04DX003 (ip), vehicle: DMSO) 108 % of control; (dose: 50.0 mg/kg/injection, schedule: Q04DX003 (ip), vehicle: DMSO) 108 % of control; (dose: 100.0 mg/kg/injection, schedule: Q04DX003 (ip), vehicle: DMSO) 99 % of control.

Consider `CNc1nnnn1C`, for which the T/C by setting is: (dose: 50.0 mg/kg/injection, schedule: Q01DX005 (ip), vehicle: saline) 98 % of control; (dose: 100.0 mg/kg/injection, schedule: Q01DX005 (ip), vehicle: saline) 98 % of control; (dose: 200.0 mg/kg/injection, schedule: Q01DX005 (ip), vehicle: saline) 98 % of control.

`c1cnc(Nc2c3ccccc3nc3ccccc23)nc1`: the T/C under setting [10] is 103 % of control, the T/C under setting [11] was 103 % of control and the T/C under setting [12] was 94 % of control.

As to `C/C=C(/C(=O)O)S(=O)(=O)O.[Ag]`, the T/C under setting [13] is 103 % of control.

Regarding `Nc1ccc2ccccc2c1-c1cccc2ccccc12`, the T/C under setting [4] is 96 % of control; the T/C under setting [5] is 96 % of control; the T/C under setting [10] is 102 % of control; the T/C under setting [6] is 102 % of control; the T/C under setting [11] is 102 % of control; the T/C under setting [12] was 92 % of control.

As for `CNC(=O)c1ccc(OC)cc1C1(O)c2ccccc2CCc2ccccc21`, the T/C by setting is: under setting [7], 92 % of control; under setting [8], 92 % of control; under setting [9], 89 % of control.

Regarding `O=C(OC1CCc2ccccc2C1)c1ccc(N=Nc2ccccc2)cc1` (stereo not given), the T/C is, setting by setting: (dose: 15.0 mg/kg/injection, schedule: Q01DX005 (ip), vehicle: saline with Tween-80) 100 % of control; (dose: 30.0 mg/kg/injection, schedule: Q01DX005 (ip), vehicle: saline with Tween-80) 97 % of control; under setting [14], 91 % of control; under setting [15], 86 % of control.

Consider `COc1ccc(-n2c(O)c(N=Nc3nc4ccc([N+](=O)[O-])cc4s3)c(=O)n(-c3ccccc3)c2=S)cc1`, for which the T/C was 103 % of control under setting [1], 100 % of control under setting [2] and 91 % of control under setting [3].

For `O=C(O)CSc1ccc([N+](=O)[O-])cc1[N+](=O)[O-]`, the T/C under setting [1] is 107 % of control; the T/C under setting [14] is 96 % of control; the T/C under setting [2] was 103 % of control; the T/C under setting [15] was 86 % of control; the T/C under setting [3] was 109 % of control; the T/C under setting [16] was 95 % of control.

For `CCNC1=C(C(=O)OCC)C(=O)CO1`, the T/C under setting [14] is 100 % of control, the T/C under setting [15] is 100 % of control and the T/C under setting [16] is 99 % of control.

`COc1ccc2c(CC(=O)O)cc(=O)oc2c1`: the T/C was 102 % of control under setting [14], 120 % of control under setting [15] and 99 % of control under setting [16].

Consider `CC(C)=CCOc1ccc2ccc(=O)oc2c1`, for which the T/C is 106 % of control (dose: 5.0 mg/kg/injection, schedule: Q01DX009 (ip), vehicle: saline with Tween-80); 108 % of control (dose: 10.0 mg/kg/injection, schedule: Q01DX009 (ip), vehicle: saline with Tween-80); 103 % of control under setting [13].

Regarding `CCCCN1CS[C@@H]2CCCC[C@H]21`, the T/C is, setting by setting: (dose: 21.0 mg/kg/injection, schedule: Q01DX005 (ip), vehicle: Klucel (hydroxypropylcellulose) (HPC)) 104 % of control; (dose: 42.0 mg/kg/injection, schedule: Q01DX005 (ip), vehicle: Klucel (hydroxypropylcellulose) (HPC)) 113 % of control; (dose: 84.0 mg/kg/injection, schedule: Q01DX005 (ip), vehicle: Klucel (hydroxypropylcellulose) (HPC)) 116 % of control.

Regarding `CC1=Nc2ccc(C(F)(F)F)cc2NC(=O)C1`, the T/C runs as follows: under setting [7], 100 % of control; under setting [8], 99 % of control and 97 % of control; under setting [9], 100 % of control and 96 % of control.

Consider `O/N=C/C(=Nc1ccccc1N=C(/C=N/O)NO)NO`, for which the T/C was 95 % of control under setting [14], 103 % of control under setting [15] and 94 % of control under setting [16].
